Laboratory results reported in EP4717277A1, “USE OF DRUG CONJUGATE IN TREATING TUMOR DISEASE AND METHOD THEREFOR” (Sichuan Kelun-Biotech Biopharmaceutical Co., Ltd., priority 2023, dated 2024).

How the values were obtained:
[1] = Toxicokinetic behavior of the conjugate and released toxin molecules after repeated intravenous dosing; format: in vivo, cynomolgus monkeys; conditions: after the last dosing with 50 mg/kg conjugate A
Experimental: The cynomolgus monkeys were divided into four groups according to different doses: control group, 25 mg/kg dose group, 50 mg/kg dose group and 75 mg/kg dose group, with 5 males and 5 females in each group. […] For the monkeys in each group, blood samples were collected before and immediately after, and 4 h, 24 h, 48 h, 96 h and 168 h after the first and last dosing (0-1 min after the end of dosing), 1 h before and immediately after the second and third dosing (0-1 min after the end of dosing), and 336 h after the last dosing.

[2] = Clinical trial, pharmacokinetic study of the dose-escalation cohort; format: in vivo, human; conditions: patients, first 4-week cycle
Experimental: Based on the patient's weight, a dose escalation design with five dose cohorts of 2, 4, 6, 9 and 12 mg/kg was employed, which were injected intravenously once every two weeks, every 28 days as a cycle, and were given every cycle until the disease progressed or an intolerable toxic reaction occurred. The toxicity of all planned dose groups and some intermediate dose groups was evaluated by BLRM. Based on the model analysis, the sponsor and the researcher jointly decided the decision of dose increase.

## CC[C@@]1(O)C(=O)OCc2c1cc1n(c2=O)Cc2c-1nc1ccccc1c2CCN(C(C)C)S(C)(=O)=O [toxins]
[1]; female monkeys
  exposure to the toxin molecules: 3850 ng·h/mL
[1]; male monkeys
  exposure to the toxin molecules: 5860 ng·h/mL
[2]
  plasma exposure of free payload (area under the curve (AUC)) relative to that of Conjugate A: ~5%
  plasma exposure of free payload (maximum plasma concentration (Cmax)) relative to that of Conjugate A: approximately 6%
